Measured values taken from ChEMBL document CHEMBL1201862, “PubChem BioAssay data set” (2004).
“And” between values parts separate entries of the source, which are not always exact repeats. Equal values may be shown once.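 A five-concentration, 48-hour dose response in 96-well plates underlies each endpoint, interpolated linearly between surrounding concentrations. Abbreviation: GI50, concentration required for 50% inhibition of growth.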 The source made the active and inactive calls. Cut-off read from the data, not from the text of the source: active = GI50 up to about 1.1 µM and inactive = higher.

Key:
Assay in all cases: inhibition of tumour cell growth, NCI panel, 48 h
[1] = system: NCI-H226
[2] = system: SNB-75
[3] = system: PC-3
[4] = system: T47D
[5] = system: TK-10
[6] = system: K562
[7] = system: EKVX
[8] = system: KM12
[9] = system: SK-MEL-28
[10] = system: BT-549
[11] = system: 786-0
[12] = system: UACC-62
[13] = system: SR
[14] = system: HCC 2998
[15] = system: M19-MEL
[16] = system: MDA-N
[17] = system: MCF7
[18] = system: LOX IMVI
[19] = system: NCI/ADR-RES
[20] = system: COLO 205
[21] = system: UACC-257
[22] = system: LXFL 529
[23] = system: OVCAR-5
[24] = system: OVCAR-3
[25] = system: DLD-1
[26] = system: SNB-78
[27] = system: HCT-116
[28] = system: OVCAR-4
[29] = system: NCI-H460
[30] = system: A549
[31] = system: UO-31
[32] = system: SF-268
[33] = system: KM-20L2
[34] = system: M14
[35] = system: SN12C
[36] = system: CAKI-1
[37] = system: MDA-MB-231
[38] = system: SF-295
[39] = system: DU-145
[40] = system: HL-60
[41] = system: XF498
[42] = system: SK-MEL-2
[43] = system: HOP-62
[44] = system: HT-29
[45] = system: U-251
[46] = system: CCRF-CEM
[47] = system: SF-539
[48] = system: SNB-19
[49] = system: RXF 393
[50] = system: NCI-H23
[51] = system: SW-620
[52] = system: ACHN
[53] = system: NCI-H522
[54] = system: IGROV-1
[55] = system: HCT-15
[56] = system: HOP-92
[57] = system: A498
[58] = system: Malme-3M
[59] = system: RPMI-8226
[60] = system: OVCAR-8
[61] = system: SK-OV-3
[62] = system: SK-MEL-5
[63] = system: MOLT-4

Measured: GI50

CC1=NN(C(=O)c2ccccc2O)C(=O)/C1=C/c1cccc(O)c1
active: [2] 258 nM | [4] 472 nM | [6] 178 nM | [8] 389 nM | [10] 392 nM | [11] 826 nM | [12] 274 nM | [13] 938 nM | [15] 596 nM | [16] 603 nM | [18] 597 nM | [22] 276 nM | [24] 824 nM | [25] 167 nM | [26] 276 nM | [27] 244 nM | [29] 774 nM | [30] 375 nM | [31] 178 nM | [32] 637 nM | [34] 446 nM | [38] 671 nM | [39] 536 nM | [41] 783 nM | [42] 968 nM | [45] 277 nM | [47] 171 nM | [48] 543 nM | [49] 161 nM | [50] 405 nM | [52] 188 nM | [54] 198 nM | [56] 462 nM | [57] 44.3 nM | [59] 731 nM | [60] 571 nM
1460 nM: [55]
inactive: [1] 8510 nM | [3] 3190 nM | [5] 4760 nM | [7] 2770 nM | [9] 50600 nM | [14] 12600 nM | [17] 1600 nM | [19] 6210 nM | [20] 32800 nM | [21] 1210 nM | [23] 5560 nM | [28] 2270 nM | [33] 25500 nM | [35] 45900 nM | [36] > 100000 nM | [37] 38800 nM | [40] 2.9 µM | [43] 1180 nM | [44] 39200 nM | [46] 2.88 µM | [51] 3490 nM | [53] 1220 nM | [58] 1940 nM | [61] 2430 nM | [62] 3200 nM

N#Cc1c(-c2ccccc2)cc(-c2ccccc2)n(C2OC(CO)C(O)C(O)C2O)c1=O (stereo unspecified)
inactive: [6] 44.2 µM and 49.7 µM | [63] 41 µM and 38.2 µM | [12] 86.5 µM and 84.3 µM | [13] 47300 nM | [18] 61.9 µM and 63.1 µM | [22] 68.4 µM and 97.5 µM | [40] 43.9 µM and 44.2 µM | [46] 59.8 µM and 47.1 µM | [59] 69.7 µM and 84.3 µM
